The record followed here is the supplement of paper PMC10307832.

What all share (assay): relative viability (nuclei count vs DMSO), 5 days (fraction); higher = more cells survive
Compound in the experiment “BGJ398 + Pictilisib”: CCN1CCN(c2ccc(Nc3cc(N(C)C(=O)Nc4c(Cl)c(OC)cc(OC)c4Cl)ncn3)cc2)CC1 [BGJ398] + CS(=O)(=O)N1CCN(Cc2cc3nc(-c4cccc5[nH]ncc45)nc(N4CCOCC4)c3s2)CC1 [Pictilisib] (partner 1 µM)
Summed up:
(§1)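 Five library-drug doses in √10 steps were combined with a fixed anchor-drug dose, or a single drug was given alone, by pin tool to lung cancer cell lines in 1536-well plates the day after seeding. Nuclei were stained and counted after 5 days. Relative viability is the nuclei count in treated wells over that in vehicle wells, taken as the median of duplicate plates.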

Compound in the experiment “BGJ398 + Linsitinib”: CCN1CCN(c2ccc(Nc3cc(N(C)C(=O)Nc4c(Cl)c(OC)cc(OC)c4Cl)ncn3)cc2)CC1 [BGJ398] + C[C@]1(O)C[C@@H](c2nc(-c3ccc4ccc(-c5ccccc5)nc4c3)c3c(N)nccn32)C1 [Linsitinib] (partner 1 µM)
A digest of the protocol:
as §1

Compound in the experiment “BGJ398 + Crizotinib”: CCN1CCN(c2ccc(Nc3cc(N(C)C(=O)Nc4c(Cl)c(OC)cc(OC)c4Cl)ncn3)cc2)CC1 [BGJ398] + C[C@@H](Oc1cc(-c2cnn(C3CCNCC3)c2)cnc1N)c1c(Cl)ccc(F)c1Cl [Crizotinib] (partner 1 µM)
Summed up:
as §1

Compound in experiment [1]: C1=CC2=NC=CN=C2C=C1/C=C/3\C(=O)NC(=O)S3 + COc1cc2c(Oc3ccc(NC(=O)C4(C(=O)Nc5ccc(F)cc5)CC4)cc3F)ccnc2cc1OCCCN1CCOCC1 [Foretinib] (partner 0.25 µM)
A digest of the protocol:
as §1

Turning to UMC-11, the relative viability came to 0.839 with BGJ398 + Pictilisib (first compound 0.01 µM); 0.686 in the experiment with BGJ398 + Pictilisib (first compound 0.03162 µM); 0.897 with BGJ398 + Pictilisib (first compound 0.1 µM); 0.73 with BGJ398 + Pictilisib (first compound 0.3162 µM); 0.707 with BGJ398 + Pictilisib (first compound 1 µM); 1.01 with BGJ398 + Linsitinib (first compound 0.01 µM). Moreover, the relative viability with BGJ398 + Linsitinib (first compound 0.03162 µM) was 0.982; in the experiment with BGJ398 + Linsitinib (first compound 0.1 µM), 1.04; with BGJ398 + Linsitinib (first compound 0.3162 µM), 1.03; in the experiment with BGJ398 + Linsitinib (first compound 1 µM), 1.01; with BGJ398 + Crizotinib (first compound 0.01 µM) it was 0.507; with BGJ398 + Crizotinib (first compound 0.03162 µM), 0.585. Further, the relative viability in the experiment with BGJ398 + Crizotinib (first compound 0.1 µM) was 0.539; with BGJ398 + Crizotinib (first compound 0.3162 µM), 0.579; in the experiment with BGJ398 + Crizotinib (first compound 1 µM), 0.53; in experiment [1] (first compound 0.02 µM), 1.03; in experiment [1] (first compound 0.06325 µM) it was 1.03; in experiment [1] (first compound 0.2 µM), 1.09. Also, the relative viability in experiment [1] (first compound 0.6325 µM) turned out to be 0.964; in experiment [1] (first compound 2 µM) it was 1.11.
